Laboratory results taken from patent US4683230A, “BMY-28121, a new antitumor antibiotic” (Bristol-Myers Company, priority 1985, dated 1987).
Converted amounts (≈) assume the structure as drawn.

What was measured:
[1] = system: Clostridium perfringens A22787; assay: microbe, parasite or virus in culture; type: cell-based
[2] = system: P388 leukemia; conditions: mouse, in vivo
[3] = system: anaerobic bacteria; type: cell-based
[4] = Acute toxicity in mice, single intraperitoneal administration; design: species or system mice (male ddY strain); conditions: mouse, in vivo, ip, male ddY mice
[5] = system: B16 melanoma; assay: Antitumor activity in mice, melanotic melanoma B16; conditions: ip, once daily for 9 days, circled = significant antitumor effect

Compound: CC1(C)S[C@@H]2[C@H](NC(=O)[C@H](N)c3ccccc3)C(=O)N2[C@H]1C(=O)O [Ampicillin]
- MIC [1]: 0.1 µg/mL (≈ 0.286 µM)

Compound: COc1cccc2c1N[C@H](O)[C@@H]1CC(/C=C/C(=O)N(C)C)=CN1C2=O [BMY-28121A]
- antitumor activity against experimental tumors in mice, eg. P388 leukemia [2]: marked antitumor activity

Compound: COc1cccc2c1N[C@H](OC)[C@@H]1CC(/C=C/C(=O)N(C)C)=CN1C2=O [BMY-28121B, 1,10,11,11a-tetrahydro-9,11-dimethoxy-5H-pyrrolo[2,1-c][1,4]benzodiazepine-5-one-2-N,N-dimethylacrylamide]
- inhibition of anaerobic bacteria [3]: inhibited all
- LD50 [4]: 0.81 mg/kg
- solubility in ethyl acetate and ethyl ether: slightly soluble
- solubility in methanol, ethanol, chloroform, pyridine, and dimethylformamide: readily soluble
- solubility in n-hexane: practically insoluble
- solubility in water: practically insoluble
- antitumor activity against experimental tumors in mice, eg. P388 leukemia [2]: marked antitumor activity

Compound: CO[C@@]12[C@H](COC(N)=O)C3=C(C(=O)C(C)=C(N)C3=O)N1C[C@@H]1N[C@@H]12 [Mitomycin C]
- T/C % of MST ([5]; 0.13 mg/kg/day): 124%
- T/C % of MST ([5]; 0.25 mg/kg/day): 136%
